ChEMBL document CHEMBL3885881, “DrugMatrix”

Organism: Rattus norvegicus
Test: DrugMatrix - Regimen: Daily Repeat
Type: toxicity, organism-based, Sprague-Dawley
Set-up: regimen Daily Repeat, gender Male, age 6-8 weeks
Settings: in vivo, po, route oral GAVAGE, […]; for ABSOLUTE BASOPHIL / ABSOLUTE EOSINOPHIL / ABSOLUTE LYMPHOCYTE / ABSOLUTE MONOCYTE / ABSOLUTE SEGMENTED NEUTROPHIL / BASOPHIL / EOSINOPHIL / ERYTHROCYTE COUNT / HEMATOCRIT / HEMOGLOBIN / LEUKOCYTE COUNT / LYMPHOCYTE / MEAN CORPUSCULAR HEMOGLOBIN / MEAN CORPUSCULAR HEMOGLOBIN CONCENTRATION / MONOCYTE / NEUTROPHIL / NUCLEATED RED BLOOD CELLS / PLATELET COUNT: tissue Blood; for ALANINE AMINOTRANSFERASE / ALBUMIN / ALKALINE PHOSPHATASE / ASPARTATE AMINOTRANSFERASE / BLOOD UREA NITROGEN / CARBON DIOXIDE / CHLORIDE / CHOLESTEROL / CREATINE PHOSPHOKINASE / CREATININE / GLUCOSE / LACTATE DEHYDROGENASE / LIPASE / PHOSPHORUS / POTASSIUM / SODIUM / TOTAL BILIRUBIN / TOTAL PROTEIN / URIC ACID: tissue Plasma
[1] = 0 mg/kg, 72 h, dose level Control, time 3 day
[2] = 0 mg/kg, 120 h, dose level Control, time 5 day
[3] = 0.2 mg/kg, 72 h, dose level Low, time 3 day

SMILES: CCOC(=O)C1=C(COCCN)NC(C)=C(C(=O)OC)C1c1ccccc1Cl (stereo not given) [AMLODIPINE]
- ABSOLUTE BASOPHIL [1]: 0 CELLS/uL
- ABSOLUTE EOSINOPHIL [1]: 70.67 CELLS/uL
- ABSOLUTE LYMPHOCYTE [1]: 12761.5 CELLS/uL
- ABSOLUTE MONOCYTE [1]: 214.17 CELLS/uL
- ABSOLUTE SEGMENTED NEUTROPHIL [1]: 987 CELLS/uL
- BASOPHIL [1]: 0%
- EOSINOPHIL [1]: 0.5%
- ERYTHROCYTE COUNT [1]: 5.61 x10E6/uL
- HEMATOCRIT [1]: 35.22%
- HEMOGLOBIN [1]: 13.57 G/DL
- LEUKOCYTE COUNT [1]: 14.03 x10E3/uL
- LYMPHOCYTE [1]: 91%
- MEAN CORPUSCULAR HEMOGLOBIN [1]: 24.25 pg
- MEAN CORPUSCULAR HEMOGLOBIN CONCENTRATION [1]: 38.52 G/DL
- MONOCYTE [1]: 1.5%
- NEUTROPHIL [1]: 7%
- NUCLEATED RED BLOOD CELLS [1]: 0 /100WBC
- PLATELET COUNT [1]: 997.5 x10E3/uL
- ALANINE AMINOTRANSFERASE [1]: 66.5 u/L
- ALBUMIN [1]: 3.98 G/DL
- ALKALINE PHOSPHATASE [1]: 350 u/L
- ASPARTATE AMINOTRANSFERASE [1]: 83.83 u/L
- BLOOD UREA NITROGEN [1]: 12.33 mg/dL
- CARBON DIOXIDE [1]: 30.33 mmol/L
- CHLORIDE [1]: 100 MEQ/L
- CHOLESTEROL [1]: 75 mg/dL
- CREATINE PHOSPHOKINASE [1]: 200 u/L
- CREATININE [1]: 0.17 mg/dL
- GLUCOSE [1]: 170 mg/dL
- LACTATE DEHYDROGENASE [1]: 89.33 u/L
- LIPASE [1]: 10.33 u/L
- PHOSPHORUS [1]: 10.88 mg/dL
- POTASSIUM [1]: 6.13 MEQ/L
- SODIUM [1]: 140.53 MEQ/L
- TOTAL BILIRUBIN [1]: 0.2 mg/dL
- TOTAL PROTEIN [1]: 5.67 G/DL
- URIC ACID [1]: 1.6 mg/dL
- ABSOLUTE BASOPHIL [2]: 0 CELLS/uL
- ABSOLUTE EOSINOPHIL [2]: 0 CELLS/uL
- ABSOLUTE LYMPHOCYTE [2]: 9526.67 CELLS/uL
- ABSOLUTE MONOCYTE [2]: 134.17 CELLS/uL
- ABSOLUTE SEGMENTED NEUTROPHIL [2]: 922.5 CELLS/uL
- BASOPHIL [2]: 0%
- EOSINOPHIL [2]: 0%
- ERYTHROCYTE COUNT [2]: 5.58 x10E6/uL
- HEMATOCRIT [2]: 34.78%
- HEMOGLOBIN [2]: 13.5 G/DL
- LEUKOCYTE COUNT [2]: 10.58 x10E3/uL
- LYMPHOCYTE [2]: 90.17%
- MEAN CORPUSCULAR HEMOGLOBIN [2]: 24.27 pg
- MEAN CORPUSCULAR HEMOGLOBIN CONCENTRATION [2]: 38.82 G/DL
- MONOCYTE [2]: 1.17%
- NEUTROPHIL [2]: 8.67%
- NUCLEATED RED BLOOD CELLS [2]: 0.17 /100WBC
- PLATELET COUNT [2]: 807.17 x10E3/uL
- ALANINE AMINOTRANSFERASE [2]: 66.83 u/L
- ALBUMIN [2]: 3.73 G/DL
- ALKALINE PHOSPHATASE [2]: 286.17 u/L
- ASPARTATE AMINOTRANSFERASE [2]: 142.33 u/L
- BLOOD UREA NITROGEN [2]: 14.67 mg/dL
- CARBON DIOXIDE [2]: 25.5 mmol/L
- CHLORIDE [2]: 89.17 MEQ/L
- CHOLESTEROL [2]: 75.17 mg/dL
- CREATINE PHOSPHOKINASE [2]: 310.67 u/L
- CREATININE [2]: 0.2 mg/dL
- GLUCOSE [2]: 153 mg/dL
- LACTATE DEHYDROGENASE [2]: 1594 u/L
- LIPASE [2]: 14.83 u/L
- PHOSPHORUS [2]: 11.28 mg/dL
- POTASSIUM [2]: 8.46 MEQ/L
- SODIUM [2]: 126.88 MEQ/L
- TOTAL BILIRUBIN [2]: 0.37 mg/dL
- TOTAL PROTEIN [2]: 5.53 G/DL
- URIC ACID [2]: 1.52 mg/dL
- ABSOLUTE BASOPHIL [3]: 0 CELLS/uL
- ABSOLUTE EOSINOPHIL [3]: 0 CELLS/uL
- ABSOLUTE LYMPHOCYTE [3]: 9376 CELLS/uL
- ABSOLUTE MONOCYTE [3]: 215 CELLS/uL
- ABSOLUTE SEGMENTED NEUTROPHIL [3]: 975.67 CELLS/uL
- BASOPHIL [3]: 0%
- EOSINOPHIL [3]: 0%
- ERYTHROCYTE COUNT [3]: 5.44 x10E6/uL
- HEMATOCRIT [3]: 34.4%
- HEMOGLOBIN [3]: 13.67 G/DL
- LEUKOCYTE COUNT [3]: 10.57 x10E3/uL
- LYMPHOCYTE [3]: 88.67%
- MEAN CORPUSCULAR HEMOGLOBIN [3]: 25.13 pg
- MEAN CORPUSCULAR HEMOGLOBIN CONCENTRATION [3]: 39.73 G/DL
- MONOCYTE [3]: 2%
- NEUTROPHIL [3]: 9.33%
- NUCLEATED RED BLOOD CELLS [3]: 0 /100WBC
- PLATELET COUNT [3]: 1115 x10E3/uL
- ALANINE AMINOTRANSFERASE [3]: 74.33 u/L
- ALBUMIN [3]: 4 G/DL
- ALKALINE PHOSPHATASE [3]: 391 u/L
- ASPARTATE AMINOTRANSFERASE [3]: 107.33 u/L
- BLOOD UREA NITROGEN [3]: 11 mg/dL
- CARBON DIOXIDE [3]: 28.67 mmol/L
- CHLORIDE [3]: 100.67 MEQ/L
- CHOLESTEROL [3]: 69.67 mg/dL
- CREATINE PHOSPHOKINASE [3]: 1227 u/L
- CREATININE [3]: 0.14 mg/dL
- GLUCOSE [3]: 178 mg/dL
- LACTATE DEHYDROGENASE [3]: 183 u/L
- LIPASE [3]: 11 u/L
- PHOSPHORUS [3]: 10.73 mg/dL
- POTASSIUM [3]: 5.94 MEQ/L
- SODIUM [3]: 141 MEQ/L
- TOTAL BILIRUBIN [3]: 0.2 mg/dL
- TOTAL PROTEIN [3]: 5.73 G/DL
